# A melting point compilation (Tetko et al.; mined from patent text by program, amines drawn as free bases though some values may be those of a salt)
row,Structure (SMILES),melting point [°C]
1,COc1cccc(NC(=O)NC2N=C(C)c3cccc(C)c3N(CC(=O)N3CC4CCC(CC4)C3)C2=O)c1 (stereo not drawn),170 to 171
2,CCSc1nc2c(C)ccnc2n1Cc1ccc(-n2cc(Cl)cc2-c2nnn[nH]2)cc1,88 to 90
3,C#CC1(OC(C)=O)C(COC(=O)c2ccc(Cl)cc2)OC(n2ccc(=O)[nH]c2=O)C1OC(C)=O (stereo not drawn),218 to 219
4,CCC(=O)Nc1nc(C(Cl)(Cl)Cl)ns1,150
5,N#CC(C#N)C(=O)c1ccc2ccccc2c1,121
6,O=[N+]([O-])c1ccc2nc(-c3ccco3)[nH]c2c1,228 to 229
7,O=C(OCc1ccccc1)c1ccc2cc(-c3ccc(C(O)CO)c(C45CC6CC(CC(C6)C4)C5)c3)ccc2c1 (stereo not drawn),193
8,Nc1nc2ccc(Oc3ccc4c(c3)OCO4)cc2s1,154 to 157
9,CCOC(=O)c1ccc(-c2ccc(-c3ccc(O)cc3)c(-c3ccc4c(c3)C(C)(C)CCC4(C)C)c2)cc1,177 to 179
10,N#Cc1cccc(NC(=O)CN2CCC(Cc3ccc(F)cc3)CC2)c1,101 to 103
11,Cc1nc2ccccc2n1-c1ccc(I)cc1,136 to 137
12,CC(=O)Nc1ccc(CC(=S)N2CCOCC2)cc1,210 to 212
13,COC(=O)C(O)c1cc2c(cc1Cl)OCO2 (stereo not drawn),66 to 68
14,CCCCCCCCCc1ccc(-c2nc(C)c(C(C)=NNC(=N)N)s2)cc1,203 to 206
15,CC(=O)N[C@H]1CC[C@H](CCC(=O)O)CC1,193 to 196
16,CCOC(=O)c1ccc(NC2CCCc3ccccc32)cc1 (stereo not drawn),34
17,CC(C)(C)OC(=O)Nc1ccc([N+](=O)[O-])cc1,112 to 114
18,CCCSc1ncc(C=C(Cc2cccs2)C(=O)O)n1Cc1ccccc1Cl,161 to 162
19,CC(=O)S[C@@H]1CCO[C@@H](c2ccccc2)O1 (relative stereo),95 to 96

row,Structure (SMILES),melting point [°C]
1,O=C(NC1CCCCC1)c1ccc(Cn2cnc3ccccc32)cc1,189 to 191
2,O=[N+]([O-])c1nccn1C1CCCC1O (stereo not drawn),109
3,O=CNc1ccc2[nH]c3cc(-c4ccccc4Cl)c4c(c3c2c1)C(=O)NC4=O,293 to 297
4,O=[N+]([O-])c1ccc(CN2CCNS2(=O)=O)cc1,115 to 117
5,C=CC(C)(C)C(=O)C(Oc1ccc(Cl)cc1)n1cnnc1 (stereo not drawn),124 to 126
6,CCOCN1C(C)=C(C(=O)OCC)C(c2cccc([N+](=O)[O-])c2)C(C(=O)OCCBr)=C1C (stereo not drawn),102 to 104
7,COC(=O)c1c(C(=O)OC)c(-c2ccc(OC)c(OC)c2)c2c(OC)c(OC)c(OC)cc2c1O,178 to 179
8,O=C(CCc1cnoc1-c1ccccc1)Nc1ccc(-n2ccnc2)cc1,176 to 177
9,O=C(Nc1cccnc1S(=O)(=O)c1ccc(Cl)cc1)N[C@@H](Cc1ccc(NC(=O)c2c(Cl)cccc2Cl)cc1)C(=O)O,181
10,COC(=O)[C@@H]1C[C@H](O)C(=O)[C@@H]2[C@@]3(C)C[C@@H](c4ccoc4)OC(=O)[C@H]3CC[C@]21C,211 to 214
11,CC(C)(C)OC(=O)N[C@@H](Cc1cscn1)C(=O)O,115
12,CCCc1ccc(-c2ccc(-c3ccc(O)cc3)nn2)cc1,220 to 223
13,CC(C)CC(=O)N[C@H]1CC[C@H](CCN2CCN(c3nccc4c3CCO4)CC2)CC1,202
14,CC(C)(C)NC(=O)[C@@H]1C[C@H](F)CN1C(=O)[C@@H](O)[C@H](Cc1ccccc1)NC(=O)[C@H](CC(N)=O)NC(=O)OCc1ccccc1,95 to 100
15,COc1ccc(C=CC=O)cc1OCc1nc(-c2ccccc2)oc1C,136 to 137
16,CCC=Cc1nc2ccccc2n1Cc1ccc(C#N)cc1,125
17,Cc1ccc(CN2CCC(NC(=O)NC(=O)c3ccccc3)CC2)cc1C,239 to 240
18,CON(C(=O)c1cn(C)nc1C(F)F)C(C)c1cccc(-c2ccc(Cl)c(Cl)c2)c1 (stereo not drawn),162 to 164
19,C[Si](C)(C)Oc1ccc(SSc2ccc(O[Si](C)(C)C)cc2)cc1,21 to 22
